Measurements taken from PubChem BioAssay (NCI).
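In this assay, cells in 96-well plates receive the compound at five concentrations for 48 hours. Endpoints are linearly interpolated between the surrounding concentrations. Here, GI50 denotes the concentration required for 50% inhibition of growth. TGI is the concentration that stops growth completely.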

Legend:
Test in all cases: NCI tumour cell line growth inhibition, 48 h
786-0 renal = system: 786-0 renal
A498 renal = system: A498 renal
A549 NSCLC = system: A549 NSCLC
ACHN renal = system: ACHN renal
CAKI-1 renal = system: CAKI-1 renal
CCRF-CEM leukemia = system: CCRF-CEM leukemia
COLO 205 colon = system: COLO 205 colon
DU-145 prostate = system: DU-145 prostate
EKVX NSCLC = system: EKVX NSCLC
HCC-2998 colon = system: HCC-2998 colon
HCT-116 colon = system: HCT-116 colon
HCT-15 colon = system: HCT-15 colon
HL-60(TB) leukemia = system: HL-60(TB) leukemia
HOP-62 NSCLC = system: HOP-62 NSCLC
HOP-92 NSCLC = system: HOP-92 NSCLC
HS 578T breast = system: HS 578T breast
HT29 colon = system: HT29 colon
IGROV1 ovarian = system: IGROV1 ovarian
K-562 leukemia = system: K-562 leukemia
KM12 colon = system: KM12 colon
LOX IMVI melanoma = system: LOX IMVI melanoma
M14 melanoma = system: M14 melanoma
MALME-3M melanoma = system: MALME-3M melanoma
MCF7 breast = system: MCF7 breast
MDA-MB-231 breast = system: MDA-MB-231 breast
MDA-MB-435 = system: MDA-MB-435
MOLT-4 leukemia = system: MOLT-4 leukemia
NCI-H226 lung = system: NCI-H226 lung
NCI-H23 lung = system: NCI-H23 lung
NCI-H460 lung = system: NCI-H460 lung
NCI-H522 lung = system: NCI-H522 lung
NCI/ADR-RES ovarian = system: NCI/ADR-RES ovarian
OVCAR-3 ovarian = system: OVCAR-3 ovarian
OVCAR-4 ovarian = system: OVCAR-4 ovarian
OVCAR-5 ovarian = system: OVCAR-5 ovarian
OVCAR-8 ovarian = system: OVCAR-8 ovarian
PC-3 prostate = system: PC-3 prostate
RPMI-8226 leukemia = system: RPMI-8226 leukemia
RXF 393 renal = system: RXF 393 renal
SF-268 CNS = system: SF-268 CNS
SF-295 CNS = system: SF-295 CNS
SF-539 CNS = system: SF-539 CNS
SK-MEL-2 melanoma = system: SK-MEL-2 melanoma
SK-MEL-28 melanoma = system: SK-MEL-28 melanoma
SK-MEL-5 melanoma = system: SK-MEL-5 melanoma
SK-OV-3 ovarian = system: SK-OV-3 ovarian
SN12C renal = system: SN12C renal
SNB-19 CNS = system: SNB-19 CNS
SNB-75 CNS = system: SNB-75 CNS
SW-620 colon = system: SW-620 colon
T-47D breast = system: T-47D breast
TK-10 renal = system: TK-10 renal
U251 CNS = system: U251 CNS
UACC-257 melanoma = system: UACC-257 melanoma
UACC-62 melanoma = system: UACC-62 melanoma
UO-31 renal = system: UO-31 renal

CCc1cccc(C(C)C)c1NC1=C([n+]2ccc(C)cc2)C(=O)c2ccccc2C1=O
TGI (786-0 renal): 12.1 µM
TGI (A498 renal): 8.79 µM
TGI (A549 NSCLC): 22.5 µM
TGI (ACHN renal): 1.68 µM
TGI (CAKI-1 renal): 5.41 µM
TGI (CCRF-CEM leukemia): 4 µM
TGI (COLO 205 colon): 2.57 µM
TGI (DU-145 prostate): 3.92 µM
TGI (EKVX NSCLC): 5.16 µM
TGI (HCC-2998 colon): 20.9 µM
TGI (HCT-116 colon): > 100 µM
TGI (HCT-15 colon): 13.9 µM
TGI (HL-60(TB) leukemia): 9.29 µM
TGI (HOP-62 NSCLC): 9.62 µM
TGI (HOP-92 NSCLC): 7.06 µM
TGI (HS 578T breast): > 100 µM
TGI (HT29 colon): 7.75 µM
TGI (IGROV1 ovarian): 8.18 µM
TGI (K-562 leukemia): 20.3 µM
TGI (KM12 colon): > 43.4 µM
TGI (LOX IMVI melanoma): 3.39 µM
TGI (M14 melanoma): 3.16 µM
TGI (MALME-3M melanoma): 6.91 µM
TGI (MCF7 breast): 1.3 µM
TGI (MDA-MB-231 breast): > 34.7 µM
TGI (MDA-MB-435): 3.12 µM
TGI (MOLT-4 leukemia): 9.43 µM
TGI (NCI-H226 lung): 8.76 µM
TGI (NCI-H23 lung): > 100 µM
TGI (NCI-H460 lung): 4.09 µM
TGI (NCI-H522 lung): 15.8 µM
TGI (NCI/ADR-RES ovarian): 37.8 µM
TGI (OVCAR-3 ovarian): 2.31 µM
TGI (OVCAR-4 ovarian): 10.9 µM
TGI (OVCAR-5 ovarian): 23.2 µM
TGI (OVCAR-8 ovarian): 4.79 µM
TGI (PC-3 prostate): 8.91 µM
TGI (RPMI-8226 leukemia): 2.71 µM
TGI (RXF 393 renal): 4.28 µM
TGI (SF-268 CNS): 5.8 µM
TGI (SF-295 CNS): 18.1 µM
TGI (SF-539 CNS): 4.27 µM
TGI (SK-MEL-2 melanoma): 28.9 µM
TGI (SK-MEL-28 melanoma): 20.8 µM
TGI (SK-MEL-5 melanoma): 4.66 µM
TGI (SK-OV-3 ovarian): 19.7 µM
TGI (SN12C renal): 8.35 µM
TGI (SNB-19 CNS): > 100 µM
TGI (SNB-75 CNS): 7.32 µM
TGI (SW-620 colon): > 100 µM
TGI (T-47D breast): 2.24 µM
TGI (TK-10 renal): 29.1 µM
TGI (U251 CNS): 12.1 µM
TGI (UACC-257 melanoma): 4.45 µM
TGI (UACC-62 melanoma): 4.22 µM
TGI (UO-31 renal): 10 µM

O=C(Nc1ccc2cc3ccc(NC(=O)N4CCCCCC4)cc3nc2c1)N1CCCCCC1
GI50 (786-0 renal): 0.344 µM
TGI (786-0 renal): 1.28 µM
GI50 (HOP-92 NSCLC): 1.57 µM
TGI (HOP-92 NSCLC): 3.28 µM
GI50 (K-562 leukemia): 0.35 µM
TGI (K-562 leukemia): 1.23 µM
GI50 (LOX IMVI melanoma): 1.42 µM
TGI (LOX IMVI melanoma): 2.75 µM
GI50 (M14 melanoma): 1.32 µM
TGI (M14 melanoma): 2.78 µM
GI50 (MALME-3M melanoma): 1.13 µM
TGI (MALME-3M melanoma): 2.53 µM
GI50 (RPMI-8226 leukemia): 0.315 µM
TGI (RPMI-8226 leukemia): 1.02 µM
GI50 (RXF 393 renal): 0.219 µM
TGI (RXF 393 renal): 0.505 µM
GI50 (SF-295 CNS): 0.783 µM
TGI (SF-295 CNS): 2.12 µM
GI50 (SF-539 CNS): 0.841 µM
TGI (SF-539 CNS): 2.09 µM
GI50 (SK-MEL-2 melanoma): 1.62 µM
TGI (SK-MEL-2 melanoma): 3.14 µM
GI50 (SK-MEL-28 melanoma): 1.32 µM
TGI (SK-MEL-28 melanoma): 2.67 µM
GI50 (SK-MEL-5 melanoma): 1.48 µM
TGI (SK-MEL-5 melanoma): 2.81 µM
GI50 (TK-10 renal): 1.92 µM
TGI (TK-10 renal): 3.46 µM
GI50 (U251 CNS): 0.534 µM
TGI (U251 CNS): 1.81 µM
GI50 (UACC-257 melanoma): 1.81 µM
TGI (UACC-257 melanoma): 3.36 µM
GI50 (UO-31 renal): 1.66 µM
TGI (UO-31 renal): 3.04 µM
